According to patent US12398154B2, “Azaquinazoline pan-KRas inhibitors” (Mirati Therapeutics, Inc., priority 2020, dated 2025):

Tests used:
Assay in all cases: biochemical
KRas G12V = KRas G12V (Homo sapiens, UniProt P01116, G12V);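 note: KRas binding measured by TR-FRET displacement at room temperature, IC50 fitted from percent of control values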
Procedure: (§1) The ability of a compound to bind to KRas was measured using a TR-FRET displacement assay. […] After a 60-minute incubation at room temperature, the reaction was measured using a BMG LABTECH CLARIO star Plus via TR-FRET. […] The POC values were fit to a 4-parameter IC50 equation and the IC50 value reported.

KRas G12C = KRas G12C (Homo sapiens, UniProt P01116, G12C);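 note: binding to KRas assessed by TR-FRET displacement after one hour incubation at room temperature, potency fitted from percent-of-control values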
Procedure: as §1

KRas G12R = KRas G12R (Homo sapiens, UniProt P01116, G12R);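 note: TR-FRET displacement assay of compound binding to KRas, read after one hour at room temperature, potency from a four-parameter fit of percent-of-control values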
Procedure: as §1

KRas G12D = KRas G12D (Homo sapiens, UniProt P01116, G12D);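 note: TR-FRET displacement binding assay on KRas, read after a one-hour incubation at room temperature, IC50 fitted from percent-of-control values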
Procedure: as §1

KRas WT = KRas WT (Homo sapiens, UniProt P01116);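 note: binding to KRas read as TR-FRET displacement after a one-hour room-temperature incubation, IC50 derived from percent-of-control values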
KRas WT, sequence (P01116 1-169 isoform P01116-2): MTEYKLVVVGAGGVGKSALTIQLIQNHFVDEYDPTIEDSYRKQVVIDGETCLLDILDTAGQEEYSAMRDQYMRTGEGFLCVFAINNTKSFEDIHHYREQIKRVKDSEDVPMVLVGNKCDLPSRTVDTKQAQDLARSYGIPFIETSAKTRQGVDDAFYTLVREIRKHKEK
Procedure: as §1

KRas G12V, sequence (P01116 1-169 isoform P01116-2 G12V): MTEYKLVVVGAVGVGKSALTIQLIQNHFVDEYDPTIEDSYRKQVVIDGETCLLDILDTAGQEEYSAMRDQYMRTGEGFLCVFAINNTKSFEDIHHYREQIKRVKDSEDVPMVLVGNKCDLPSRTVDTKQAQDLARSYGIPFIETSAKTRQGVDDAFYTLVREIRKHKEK
KRas G12C, sequence (P01116 1-169 isoform P01116-2 G12C): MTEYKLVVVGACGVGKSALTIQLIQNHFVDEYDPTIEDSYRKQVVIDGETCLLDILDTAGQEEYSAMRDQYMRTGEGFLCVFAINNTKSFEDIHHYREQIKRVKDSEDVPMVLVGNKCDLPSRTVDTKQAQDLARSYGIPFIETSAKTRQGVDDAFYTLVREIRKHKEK
KRas G12R, sequence (P01116 1-169 isoform P01116-2 G12R): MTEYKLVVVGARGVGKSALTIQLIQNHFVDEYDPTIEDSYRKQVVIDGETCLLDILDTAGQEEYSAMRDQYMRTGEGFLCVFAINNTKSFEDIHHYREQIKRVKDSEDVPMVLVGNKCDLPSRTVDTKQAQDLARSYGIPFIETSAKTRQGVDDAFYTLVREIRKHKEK
KRas G12D, sequence (P01116 1-169 isoform P01116-2 G12D): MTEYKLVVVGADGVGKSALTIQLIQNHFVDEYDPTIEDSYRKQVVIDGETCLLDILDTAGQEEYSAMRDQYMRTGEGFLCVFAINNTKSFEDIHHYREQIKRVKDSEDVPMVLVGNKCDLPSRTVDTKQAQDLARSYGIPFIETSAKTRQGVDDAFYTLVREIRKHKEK

Row | IC50 (KRas G12V) | IC50 (KRas G12C) | IC50 (KRas G12R) | IC50 (KRas G12D) | IC50 (KRas WT) | Structure (SMILES)
1 | 12.1 µM | 62.1 µM | 14.9 µM | 9.97 µM |  | CC1CCCN(c2nc(OCC34CCCN3CCC4)nc3c(F)c(-c4cccc5cccc(F)c45)ncc23)C1 (centres unmarked) [Example 22, 8-fluoro-7-(8-fluoronaphthalen-1-yl)-2-((hexahydro-1H-pyrrolizin-7a-yl)methoxy)-4-(3-methylpiperidin-1-yl)pyrido[4,3-d]pyrimidine]
2 | 4.3 µM | 4.74 µM | 6.18 µM | 5.27 µM |  | OC1CCCN(c2nc(OCC34CCCN3CCC4)nc3c(F)c(-c4cccc5cccc(F)c45)ncc23)C1 (centres unmarked) [Example 23, 1-(8-fluoro-7-(8-fluoronaphthalen-1-yl)-2-((hexahydro-1H-pyrrolizin-7a-yl)methoxy)pyrido[4,3-d]pyrimidin-4-yl)piperidin-3-ol]
3 | 0.212 µM | 0.295 µM | 0.41 µM | 0.139 µM |  | C#Cc1cccc2cccc(-c3ncc4c(N5CCCC(C)(O)C5)nc(OCC56CCCN5CCC6)nc4c3F)c12 (centres unmarked) [Example 55]
4 | 15 µM | 21 µM | 45.1 µM | 14.1 µM |  | CC1(O)CCCCN(c2nc(OCC34CCCN3CCC4)nc3c(F)c(-c4cccc5cccc(F)c45)ncc23)C1 (centres unmarked) [Example 65, 1-(8-fluoro-7-(8-fluoronaphthalen-1-yl)-2-((hexahydro-1H-pyrrolizin-7a-yl)methoxy)pyrido[4,3-d]pyrimidin-4-yl)-3-methylazepan-3-ol]
5 | 11.5 µM | 14.2 µM | 16.1 µM | 10.4 µM |  | CC1(O)CCCN(c2nc(OCC34CCCN3CCC4)nc3c(F)c(-c4cccc5sc(N)nc45)ncc23)C1 (centres unmarked) [Example 67, 1-(7-(2-aminobenzo[d]thiazol-4-yl)-8-fluoro-2-((hexahydro-1H-pyrrolizin-7a-yl)methoxy)pyrido[4,3-d]pyrimidin-4-yl)-3-methylpiperidin-3-ol]
6 | 2.39 µM | 1.83 µM | 0.977 µM | 63.1 µM |  | Fc1c(-c2cccc3cccc(F)c23)ncc2c(N3CC(n4ccnc4)C3)nc(OCC34CCCN3CCC4)nc12 [Example 75, 4-(3-(1H-imidazol-1-yl)azetidin-1-yl)-8-fluoro-7-(8-fluoronaphthalen-1-yl)-2-((hexahydro-1H-pyrrolizin-7a-yl)methoxy)pyrido[4,3-d]pyrimidine]
7 | 1.79 µM |  | 1.66 µM | 0.96 µM | 1.53 µM | Fc1c(-c2cccc3cccc(F)c23)ncc2c(N3CCCC4(CSC4)C3)nc(OCC34CCCN3CCC4)nc12 [Example 262, 6-(8-fluoro-7-(8-fluoronaphthalen-1-yl)-2-((hexahydro-1H-pyrrolizin-7a-yl)methoxy)pyrido[4,3-d]pyrimidin-4-yl)-2-thia-6-azaspiro[3.5]nonane]
8 | 2.44 µM |  | 7.69 µM | 2.43 µM | 3 µM | CS(=O)(=O)C1COCCN(c2nc(OCC34CCCN3CCC4)nc3c(F)c(-c4cccc5cccc(F)c45)ncc23)C1 (centres unmarked) [Example 271, 4-(8-fluoro-7-(8-fluoronaphthalen-1-yl)-2-((hexahydro-1H-pyrrolizin-7a-yl)methoxy)pyrido[4,3-d]pyrimidin-4-yl)-6-(methylsulfonyl)-1,4-oxazepane]
9 | 2.31 µM |  | 5.2 µM | 5.15 µM | 3.07 µM | NC(=O)[C@H]1CCCN(c2nc(OCC34CCCN3CCC4)nc3c(F)c(-c4cccc5cccc(F)c45)ncc23)C1 [Example 273, (S)-1-(8-fluoro-7-(8-fluoronaphthalen-1-yl)-2-((hexahydro-1H-pyrrolizin-7a-yl)methoxy)pyrido[4,3-d]pyrimidin-4-yl)piperidine-3-carboxamide]
10 | 0.867 µM |  | 2.76 µM | 0.375 µM | 14.7 µM | CN(C)C(=O)n1cc2c(n1)CCCN(c1nc(OCC34CCCN3CCC4)nc3c(F)c(-c4cccc5cccc(F)c45)ncc13)C2 [Example 274, 5-(8-fluoro-7-(8-fluoronaphthalen-1-yl)-2-((hexahydro-1H-pyrrolizin-7a-yl)methoxy)pyrido[4,3-d]pyrimidin-4-yl)-N,N-dimethyl-5,6,7,8-tetrahydropyrazolo[4,3-c]azepine-2(4H)-carboxamide]
11 | 9.05 µM |  | 7.16 µM | 1.66 µM | 24.3 µM | CC(=O)Nc1cc2n(n1)CCCN(c1nc(OCC34CCCN3CCC4)nc3c(F)c(-c4cccc5cccc(F)c45)ncc13)C2 [Example 275, N-(5-(8-fluoro-7-(8-fluoronaphthalen-1-yl)-2-((hexahydro-1H-pyrrolizin-7a-yl)methoxy)pyrido[4,3-d]pyrimidin-4-yl)-5,6,7,8-tetrahydro-4H-pyrazolo[1,5-a][1,4]diazepin-2-yl)acetamide]
12 | 4.44 µM |  | 8.25 µM | 2.46 µM |  | CC1(O)CCCN(c2nc(OCC34CCCN3CCC4)nc3c(F)c(-c4cc(O)ccc4F)ncc23)C1 (centres unmarked) [Example 429, 1-(8-fluoro-7-(2-fluoro-5-hydroxyphenyl)-2-((tetrahydro-1H-pyrrolizin-7a(5H)-yl)methoxy)pyrido[4,3-d]pyrimidin-4-yl)-3-methylpiperidin-3-ol]
13 | 10 µM |  | 15.4 µM | 8.78 µM |  | O=C1CC2(CCCN(c3nc(OCC45CCCN4CCC5)nc4c(F)c(-c5cccc6cccc(CO)c56)ncc34)C2)N1 (centres unmarked) [Example 433, 6-(8-fluoro-2-((hexahydro-1H-pyrrolizin-7a-yl)methoxy)-7-(8-(hydroxymethyl)naphthalen-1-yl)pyrido[4,3-d]pyrimidin-4-yl)-1,6-diazaspiro[3.5]nonan-2-one]
14 | 10.7 µM |  | 6.37 µM | 48.8 µM |  | N#Cc1cccc2cccc(-c3ncc4c(N5CCCC(c6nc[nH]n6)C5)nc(OCC56CCCN5CCC6)nc4c3F)c12 (centres unmarked) [Example 456, 8-(4-(3-(1H-1,2,4-triazol-3-yl)piperidin-1-yl)-8-fluoro-2-((hexahydro-1H-pyrrolizin-7a-yl)methoxy)pyrido[4,3-d]pyrimidin-7-yl)-1-naphthonitrile]
15 | 6.1 µM |  | 10.1 µM | 15.6 µM |  | NS(=O)(=O)CC1CCCN(c2nc(OCC34CCCN3CCC4)nc3c(F)c(-c4cccc5cccc(C(F)(F)F)c45)ncc23)C1 (centres unmarked) [Example 465, 1-(1-(8-fluoro-2-((hexahydro-1H-pyrrolizin-7a-yl)methoxy)-7-(8-(trifluoromethyl)naphthalen-1-yl)pyrido[4,3-d]pyrimidin-4-yl)piperidin-3-yl)methanesulfonamide]
16 | 0.151 µM |  | 0.31 µM | 0.221 µM |  | CCc1c(F)ccc2cc(O)cc(-c3ncc4c(N5CCN6C(C5)C(=O)NC6(C)C)nc(OC[C@@]56CCCN5C[C@H](F)C6)nc4c3F)c12 (stereo partly drawn) [Example 489, 7-(7-(8-ethyl-7-fluoro-3-hydroxynaphthalen-1-yl)-8-fluoro-2-(((2R,7aS)-2-fluorohexahydro-1H-pyrrolizin-7a-yl)methoxy)pyrido[4,3-d]pyrimidin-4-yl)-3,3-dimethylhexahydroimidazo[1,5-a]pyrazin-1(5H)-one]
